The record followed here is article PMC7203344, “Sirtuin 1 Inhibiting Thiocyanates (S1th)—A New Class of Isotype Selective Inhibitors of NAD^+ Dependent Lysine Deacetylases” (Frontiers in Oncology, 2020).

One test has as its target T1, human Sirt3 (Homo sapiens, UniProt Q9NTG7).
T1 construct: Human Sirt3_118−395 was expressed and purified as described previously; made in house
T1 sequence (Q9NTG7 118-395): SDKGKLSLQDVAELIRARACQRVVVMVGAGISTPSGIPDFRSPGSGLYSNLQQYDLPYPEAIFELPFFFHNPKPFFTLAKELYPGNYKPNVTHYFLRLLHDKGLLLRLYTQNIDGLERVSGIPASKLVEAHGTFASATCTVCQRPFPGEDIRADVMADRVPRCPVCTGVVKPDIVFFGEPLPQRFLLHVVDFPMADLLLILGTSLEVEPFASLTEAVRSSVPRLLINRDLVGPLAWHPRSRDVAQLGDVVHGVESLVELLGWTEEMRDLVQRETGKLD
Put plainly: Homogeneous ZMAL-based fluorescence assay, Sirt3. The format is biochemical. Conditions: 4th round. How it is done:
Recombinant human Sirt5_37−310 was purchased readily in Tris Buffer [25 mM Tris, 100 mM NaCl, 5 mM DTT, 10% glycerol (v/v)] from Enzo Life Sciences (NY, USA). Human Sirt3_118−395 was expressed and purified as described previously ([54]). For expression of human Sirt1_134−747 and Sirt2_56−356 chemically competent cells of E. coli BL21 Star (DE3) were transformed with the expression vectors pET30S-hSirt1_134−747 or pET30S-hSirt2_56−356. Bacteria were grown at 37°C in 2×YT medium supplemented with 50 μg·mL^−1 of kanamycin to an OD600 of 0.6. Then isopropyl-β-D-1-thiogalactopyranoside (IPTG) was added to a final concentration of 1 mM to induce gene expression. After further cultivation at 20°C for 12 h, the cells were harvested by centrifugation for 15 min at 5,000 g. The cells were resuspended in lysis buffer [100 mM Tris/HCl buffer at pH 8.0, 150 mM NaCl and 10% (v/v) glycerol] and disrupted by ultrasonication (Branson Digital Sonifier 250) at 70% amplitude for 10 min (3 s working, 10 s pause). The crude extract was cleared by centrifugation at 100,000 g for 1 h, and the supernatant was loaded onto a Strep-Tactin Superflow cartridge (5 ml bed volume, IBA Lifescience, Germany). Target proteins were eluted with lysis buffer containing 5 mM D-Desthiobiotin (IBA Lifescience, Germany) and further separated by size-exclusion chromatography (Superdex S200 26/60, GE Healthcare, IL, USA) equilibrated in Tris/HCl buffer (20 mM, 150 mM NaCl, pH 8.0). Pure protein was concentrated by ultrafiltration, flash-frozen in liquid nitrogen and stored at −80°C until further use. Identity as well as purity were verified by SDS-PAGE ([55]) and protein concentration was determined by the bicinchoninic acid (BCA) method, using bovine serum albumin (BSA) as a standard ([56]). Deacetylase activity was confirmed to be NAD^+-dependent and could be inhibited with the physiological sirtuin inhibitor nicotinamide.
All compounds were tested in the trypsin-coupled high-throughput ZMAL-assay in black 96-well plates (OptiPlateTM−96F, black, 96 well, Pinch bar design, PerkinElmer, USA), using ZMAL (Z-Lys(acetyl)-AMC) as a substrate ([57]). Sirt1_134−747, Sirt2_56−356, and Sirt3_118−395 were mixed with 5 μL substrate (10.5 μM final assay concentration, diluted from a […] stock in DMSO) and 3 μL Inhibitor in DMSO at various concentrations or DMSO as a control [final DMSO concentration 5% (v/v)]. The mixture was supplemented with assay buffer (50 mM Tris/HCl, 137 mM NaCl, 2.7 mM KCl, 1 mM MgCL2, pH 8.0) to a total volume of 55 μL. Enzyme concentration was adjusted to get a final conversion of 20–30%. Addition of 5 μL NAD^+ (6 mM in assay buffer, final assay concentration of 500 μM) initiated the catalytic reaction and the plates were incubated at 37°C for 4 h with agitation at 140 rpm. The catalytic reaction was stopped by addition of 60 μL stop solution [50 mM Tris, 100 mM NaCl, 6.7% (V/V) DMSO, 5.5 U/μL trypsin, 8 μM nicotinamide, pH 8.0]. The plate was again incubated at 37°C and 140 rpm for 20 min to release free AMC from the deacetylated substrate by trypsin digestion. Afterwards, fluorescence intensity was measured in a microplate reader (λEx = 390 nm, λEm = 460 nm, BMG POLARstar Optima, BMG Labtech, Germany). An enzyme-free blank control and a 100% conversion control containing AMC instead of ZMAL were measured in addition. Inhibition was calculated in % in relation to a DMSO control after blank signal subtraction and IC50 values were determined using a non-linear regression to fit the dose-response curve with OriginPro 9G (OriginLab, USA). Pre-tests as well as IC50 determination was carried out at least twice in duplicates.

For a further test, the target named is T2, Sirt1 (Homo sapiens, UniProt Q96EB6).
T2 construct: made in house; host or cells: E. coli BL21 Star (DE3)
T2 sequence (Q96EB6 134-747): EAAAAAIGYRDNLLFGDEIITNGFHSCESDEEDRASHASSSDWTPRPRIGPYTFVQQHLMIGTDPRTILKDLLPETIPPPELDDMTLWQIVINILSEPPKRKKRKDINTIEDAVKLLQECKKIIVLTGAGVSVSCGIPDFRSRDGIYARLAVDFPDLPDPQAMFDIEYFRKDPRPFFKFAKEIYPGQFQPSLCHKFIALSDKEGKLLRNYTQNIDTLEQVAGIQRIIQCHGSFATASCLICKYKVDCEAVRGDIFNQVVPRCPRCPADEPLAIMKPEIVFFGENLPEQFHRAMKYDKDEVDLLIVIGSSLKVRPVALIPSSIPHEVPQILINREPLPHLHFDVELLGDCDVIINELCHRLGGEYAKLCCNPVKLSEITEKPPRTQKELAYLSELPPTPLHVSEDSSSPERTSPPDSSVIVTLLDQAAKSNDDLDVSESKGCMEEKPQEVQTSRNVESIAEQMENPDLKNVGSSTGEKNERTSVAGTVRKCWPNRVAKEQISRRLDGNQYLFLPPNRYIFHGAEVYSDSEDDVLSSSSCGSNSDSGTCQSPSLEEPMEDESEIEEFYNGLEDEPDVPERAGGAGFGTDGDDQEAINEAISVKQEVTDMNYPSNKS
The test is described as follows: Fluorescent thermal shift assay (FTSA), Sirt1. The format is binding. Conditions: inhibitor 100 μM; read-out: Thermal shift assay: Δ Tm of Sirt1. The method, then: In a 96-well plate (Hard-Shell® PCR-plates, 96-well, thin-wall, BioRAD, USA) 14 μL Sirt1_134−747 in assay buffer (0.3 mg/mL final assay concentration, 50 mM Tris/HCl, 137 mM NaCl, 2.7 mM KCl, 1 mM MgCL2, pH 8.0) were mixed with 1 μL inhibitor in DMSO (100 μM) or DMSO [final assay concentration 5% (v/v)] as a control and 5 μL SyproOrange (1:100 in assay buffer). The fluorescence intensity was monitored during a constant increase of temperature from 20 to 95°C, 1 K per 20 s, using a real-time-PCR-machine (C1000 TouchTM Thermal Cycler, CFX96TM Real-Time System, BioRAD, USA). Melting temperatures were calculated via GraphPad Prism according to a published procedure ([60]).

Each structure is given as a SMILES string.

For orientation: inhibition means the change of the read-out against control, counted positive when it falls. Low readings indicate little suppression, high ones strong suppression. At human Sirt3, `N#CSc1cc(SC#N)c(N)nc1N` [PR-619, reference compound] gave an inhibition at 50 µM of under 10%.

With `N#CSc1cccc(NC(=O)[C@H]2CC=CC[C@H]2C(=O)O)c1` [S1th 10], the ΔTm at 100 µM at Sirt1 is -5.9 °C. This compound also registered an inhibition at 50 µM against human Sirt3 of under 10%.

As to `CCCCNC(=O)Nc1cccc(SC#N)c1` [S1th 11], the ΔTm at 100 µM on Sirt1 is -8.1 °C. At human Sirt3, this compound came in with an inhibition at 50 µM of under 10%.

For `COc1ccc(SC#N)cc1OCC(=O)N(CCC#N)CCC#N` [S1th 12], the ΔTm at 100 µM at Sirt1 was -7.2 °C. Besides, the inhibition at 50 µM against human Sirt3 is under 10%.

As to `N#CSc1cccc(NS(=O)(=O)c2ccc3c(c2)OCCO3)c1` [S1th 13], the ΔTm at 100 µM on Sirt1 is -9.6 °C. This compound also had an inhibition at 50 µM against human Sirt3 of under 10%.
